Assays:
[1] = tested on: AP-1 activation; assay: Inhibition against AP-1 activation by TNF α stimulation, luciferase reporter assay in HeLa; format: cell-based, human; conditions: TNF-α 40 ng/ml, 4 hours
Description: Measurement of Inhibition Against AP-1 Activation by TNF α Stimulation
Using a transfection reagent(Effectene; QIAGEN), the human uterine cancer cell strain HeLa was transfected with a plasmid(pAP-1-Luc Reporter Plasmid: […]) integrated with an oligonucleotide having seven tandem copies of AP-1 binding sequences(TGACTAA) on an upstream region of firefly luciferase gene(Luc) according to the QIAGEN's protocol, and the cells were incubated for 6 to 24 hours. After addition of TNF-α (40 ng/ml) in the presence or absence of a test compound, the cells were incubated for 4 hours, and intracellular luciferase activity was measured by using PicaGene LT(TOYO INK MFG Co., Ltd.) and a chemical luminescence measurement apparatus([…]luor Plus; TECAN). The inhibitory ratio was measured as a ratio relative to the value of the luciferase activity in the absence of the test compound.

[2] = tested on: GSK3 β; assay: Amount of phosphorylated GSK3 β in MOLT-4F cells; format: cell-based, human; conditions: 2 μM, 24 hours
Description: When Compound No. 4 (2 μM) of the present invention was allowed to act on MOLT-4F cells(human leukemia cells) for 24 hours, the amount of phosphorylated GSK3 β, produced by phosphorylation of GSK3 β, was increased, and it is well presumed that similar phenomena may possibly occur in nerve cells. Since GSK3 β is inactivated by the phosphorylation, it is considered that the increase of the amount of the phosphorylated GSK3 β substantially means the inhibition of GSK3 β. […] (Refer to “The Biochemical Journal”, (England), 2001, Vol. 359, No. PT1, p. 1-16; “Current Opinion in Neurobiology”, (England), 2002, Vol. 12, No. 3, p. 275-278; “Trends in Molecular Medicine”, (England), 2002, Vol. 8, No. 3, p. 126-132; “Proceedings of The National Academy of Sciences of The United States of America”, (USA), 1996, Vol. 93, No. 7, p. 2719-2723; “The Journal of Biological Chemistry”, (USA), 2002, Vol. 277, No. 44, p. 42060-42065; “Proceedings of The National Academy of Sciences of The United States of America”, (USA), 2003, Vol. 100, No. 2, p. 721-726; “Annals of The New York Academy of Sciences”, (USA), 2000, Vol. 920, p. 107-114; “Nature”, (England), 2003, Vol. 423, No. 6938, p. 435-439; and “Neuron”, (USA), 2003, Vol. 38, No. 4, p. 555-565.)

[3] = tested on: NF-κ B activation; assay: Inhibitory activity of NF-κB activation, luciferase reporter assay under TNF-α stimulation in HepG2; format: cell-based, human; conditions: HepG2, TNF-α 40 ng/ml, 4 hours; for inhibition at 1 µg/mL / inhibition at 10 µg/mL: Homo sapiens, read-out: Inhibitory rate against NF-κB activation (%)
In short: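 HepG2 cells transiently transfected with luciferase reporter carrying five tandem NF-κB binding sites, then stimulated with TNF-α (40 ng/ml) ± compound for 4 hours. Luminescent luciferase activity measured; inhibition expressed relative to activity without compound.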

[4] = tested on: rat hippocampus injected with human β amyloid; assay: Inhibitory activity against hypoplasia of memory formation (LTP), Alzheimer's model by injection of human β amyloid into the rat hippocampus; format: in vivo; conditions: 30 mg/kg intraperitoneally once a day, FIG. 1
From the text: Several places of rat hippocampus were infused with a 1:1 mixture of A β 1-40 and A β 1-43 which are human β amyloids (Aβ) for 7 continuous days by the microinjection method. On the 8th day, bipolar stimulating electrodes were fixed to the perforate pathway, and recording electrodes were fixed to the stratum moleculare of the hippocampus dentate gyrus under urethane anesthesia. A mono-synaptic reaction was searched by about 14 to 20 mV of test pulse from the stimulating electrode. Long-term potentiations (LTP: neurophysiological memory model phenomena) were compared by the test simulation and tetanic stimulation, and the existence of hypoplasia of memory formation was verified which is a problem in Alzheimer's disease. Three days before the start of the injection of β amyloid, saline for the control group and the test compound (30 mg/kg) for the dosing group were administered intraperitoneally once a day, and a comparison of LTP was carried out.

[5] = tested on: AP-1 activation; assay: Inhibition against AP-1 activation by forced expression of MEKK-1, luciferase reporter assay in HepG2; format: cell-based, human; conditions: HepG2, MEKK-1 forced expression, 24 hours
Description: Measurement of Inhibition Against AP-1 Activation by Forced Expression of MEKK-1
Using a transfection reagent (Effectene; QIAGEN), the human hepatoma cell strain HepG2 was cotransfected with a plasmid (pAP-1-Luc Reporter Plasmid: […]) integrated with an oligonucleotide having seven tandem copies of AP-1 binding sequences (TGACTAA) on an upstream region of firefly luciferase gene (Luc) and the MEKK-1 expression plasmid (pFCMEKK: […]) according to the QIAGEN's protocol, and the cells were incubated for 20 to 24 hours. Then the cells were incubated in the presence or absence of a test compound for 24 hours, and then intracellular luciferase activity was measured by using PicaGene LT (TOYO INK MFG Co., Ltd.) and a chemical luminescence measurement apparatus ([…]luor Plus; TECAN). The inhibitory ratio was measured as a ratio relative to the value of the luciferase activity in the absence of the test compound.

[6] = Homo sapiens, Drug concentration at 10 μg/mL, read-out: Inhibitory rate against AP-1 activation(%)

Row | Structure (SMILES) | Inhibitory rate against AP-1 activation(%) ([1]; Drug concentration at 1 μg/mL) | Inhibitory rate against AP-1 activation(%) ([1]; Drug concentration at 10 μg/mL) | Inhibitory rate against NF-κB activation (%) ([3]; Drug concentration at 1 μg/mL) | Inhibitory rate against NF-κB activation (%) ([3]; Drug concentration at 10 μg/mL) | inhibition at 1 µg/mL ([3]; Drug concentration at 1 μg/mL) [%] | inhibition at 10 µg/mL ([3]; Drug concentration at 10 μg/mL) [%] | further results
1 | O=C(Nc1cc(C(F)(F)F)cc(C(F)(F)F)c1)c1cc(Cl)ccc1O [compound 4, N-[3,5-bis(trifluoromethylphenyl)]-5-chloro-2-hydroxybenzamide] | 42.4 | 89.1 | 95.7 | 97.5 |  |  | amount of phosphorylated GSK3 β [2]: increased; inhibitory activity against hypoplasia of memory (LTP) [4]: inhibitory activity against hypoplasia of memory
2 | O=C(Nc1cc(C(F)(F)F)cc(C(F)(F)F)c1)c1cc(Br)ccc1O [compound 6] | 48.4 | 91.2 | 94.9 | 98.6 |  |  | 
3 | O=C(Nc1cc(C(F)(F)F)cc(C(F)(F)F)c1)c1cc(I)ccc1O [compound 7, N-[3,5-bis(trifluoromethyl)phenyl]-2-hydroxy-5-iodobenzamide] |  |  |  |  | 86.6 | 85.4 | inhibition at 1 µg/mL ([1]; Homo sapiens, Drug concentration at 1 μg/mL, read-out: Inhibitory rate against AP-1 activation(%)): 25.4%; inhibition at 10 µg/mL [1, 6]: 82.4%
4 | O=C(Nc1cc(C(F)(F)F)cc(C(F)(F)F)c1)c1cc(/C=C/c2ccccc2)ccc1O [compound 19] |  | 33.9 | 95.5 | 96.9 |  |  | 
5 | O=C(Nc1cc(C(F)(F)F)cc(C(F)(F)F)c1)c1cc(C#Cc2ccccc2)ccc1O [compound 22, N-[3,5-bis(trifluoromethyl)phenyl]-2-hydroxy-5-(phenylethynyl)-benzamide] |  |  |  |  | 83.9 | 97.1 | inhibition at 10 µg/mL [1, 6]: 44.1%
6 | O=C(Nc1cc(C(F)(F)F)cc(C(F)(F)F)c1)c1cc(-c2ccccc2)ccc1O [compound 23] | 18.1 | 60.9 | 91.8 | 96.8 |  |  | 
7 | O=C(Nc1cc(C(F)(F)F)cc(C(F)(F)F)c1)c1cc(-c2ccsc2)ccc1O [compound 29] |  | 51.5 | 81.7 | 92.9 |  |  | 
8 | O=C(Nc1cc(C(F)(F)F)cc(C(F)(F)F)c1)c1cc(C(=O)N2CCC(Cc3ccccc3)CC2)ccc1O [compound 40, N-[3,5-Bis(trifluoromethyl)phenyl]-2-hydroxy-5-(4-benzylpiperidine-1-carbonyl)-benzamide] |  |  |  |  | 44.9 | 96 | melting point: 179 to 180 °C
9 | CC(=O)Nc1cc(O)c(C(=O)Nc2cc(C(F)(F)F)cc(C(F)(F)F)c2)cc1Cl [compound 50, 4-Acetylamino-N-[3,5-bis(trifluoromethyl)phenyl]-5-chloro-2-hydoxybenzamide] |  |  | 69.9 | 96.0 |  |  | Inhibitory ratio of AP-1 activation(%) ([5]; Drug concentration 1 μM): 90.7%; Inhibitory ratio of AP-1 activation(%) ([5]; Drug concentration 1 μg/mL): 99.4%
10 | O=C(Nc1cc(C(F)(F)F)cc(C(F)(F)F)c1)c1cc(Cl)cnc1O [compound 75] | 33.3 | 56.7 | 58.1 | 82.2 |  |  | 
11 | CC(=O)Oc1ccccc1C(=O)Nc1cc(Cl)cc(Cl)c1 [compound 120, 2-acetoxy-N-(3,5-dichlorophenyl)benzamide] |  |  |  |  | 88.6 | 97.5 | melting point: 218 to 219 °C
12 | O=C(Nc1cc(Cl)cc(Cl)c1)c1cc(F)ccc1O [compound 124] |  | 67.7 | 94.2 | 97.0 |  |  | 
13 | O=C(Nc1cc(Cl)cc(Cl)c1)c1cc(Cl)ccc1O [compound 125] | 22.7 | 74.8 | 84.5 | 96.8 |  |  | 
14 | O=C(Nc1cc(Cl)cc(Cl)c1)c1cc(Br)ccc1O [compound 126] | 39.3 | 83.8 | 77.1 | 92.8 |  |  | 
15 | O=C(Nc1cc(Cl)cc(Cl)c1)c1cc(I)ccc1O [compound 127] |  | 75.4 | 85.4 | 97.1 |  |  | 
16 | O=C(Nc1nc(C(F)(F)F)c(Br)s1)c1cc(Br)ccc1O [compound 187] |  | 49.9 | 85.3 | 94.4 |  |  | 
17 | CCc1sc(NC(=O)c2cc(Br)ccc2O)nc1C(C)(C)C [compound 195, 5-Bromo-N-{4-[(1,1-dimethyl)ethyl]-5-ethylthiazol-2-yl}-2-hydroxybenzamide] |  |  |  |  | 90.5 | 98.1 | Inhibitory ratio of AP-1 activation(%) ([5]; Drug concentration 1 μM): 91.2%; Inhibitory ratio of AP-1 activation(%) ([5]; Drug concentration 1 μg/mL): 95.5%
18 | CC(C)(C)C(=O)c1sc(NC(=O)c2cc(Cl)ccc2O)nc1C(C)(C)C [compound 199, 5-Chloro-N-{4-[(1,1-dimethyl)ethyl]-5-[(2,2-dimethyl)propionyl]thiazol-2-yl}-2-hydroxybenzamide] |  |  |  |  | 96.4 | 98.4 | Inhibitory ratio of AP-1 activation(%) ([5]; Drug concentration 1 μg/mL): 70.6%
19 | O=C(Nc1nc(-c2ccccc2)c(-c2ccccc2)s1)c1cc(Br)ccc1O [compound 211] |  | 29.7 |  | 67.0 |  |  | 
20 | CCOC(=O)c1sc(NC(=O)c2cc(-c3ccccc3)ccc2O)nc1-c1ccccc1 [compound 225] |  | 33.5 | 34.6 |  |  |  | 

Source: patent US20080234233A1, “MEDICAMENT FOR TREATMENT OF NEURODEGENERATIVE DISEASES” (INSTITUTE OF MEDICINAL MOLECULAR DESIGN INC., priority 2002, published 2008)
